Experimental data published in the NIST ThermoML archive (doi:10.1021/je060271a).

Conditions: 343.15 K, Liquid, Vibrating tube method

CCCCCCC(=O)OCC(COC(=O)CCCCCC)(COC(=O)CCCCCC)COC(=O)CCCCCC [pentaerythritol tetraheptanoate]
Conditions	mass density [kg/m3]
18415 kPa	953.8
18445 kPa	953.9
18482 kPa	953.8
18513 kPa	954
18540 kPa	953.8
18543 kPa	953.8
18564 kPa	954
18575 kPa	953.9
18587 kPa	953.9
18610 kPa	954
18613 kPa	954
18633 kPa	954
18645 kPa	953.9
18661 kPa	954.1
18683 kPa	953.9
18685 kPa	954.1
18708 kPa	954
18712 kPa	954
18737 kPa	953.9
18761 kPa	954.1
18790 kPa	954
18814 kPa	954
18842 kPa	954
18866 kPa	954.2
18891 kPa	954
18920 kPa	954.3
18944 kPa	954.2
18968 kPa	954.1
18992 kPa	954.2
19022 kPa	954.1
19041 kPa	954.1
19047 kPa	954.2
19065 kPa	954.3
19072 kPa	954.3
19094 kPa	954.3
19102 kPa	954.3
19119 kPa	954.4
19127 kPa	954.3
19144 kPa	954.3
19152 kPa	954.2
19168 kPa	954.4
19178 kPa	954.4
19198 kPa	954.4
19208 kPa	954.3
19224 kPa	954.4
19233 kPa	954.4
19249 kPa	954.4
19259 kPa	954.4
19275 kPa	954.4
19288 kPa	954.4
19314 kPa	954.4
19340 kPa	954.5
19360 kPa	954.5
19391 kPa	954.4
19421 kPa	954.6
19437 kPa	954.6
19446 kPa	954.5
19468 kPa	954.6
19478 kPa	954.4
19493 kPa	954.7
19503 kPa	954.7
19514 kPa	954.7
19534 kPa	954.6
19540 kPa	954.7
19561 kPa	954.5
19577 kPa	954.6
19587 kPa	954.6
19602 kPa	954.6
19618 kPa	954.6
19628 kPa	954.6
19644 kPa	954.5
19660 kPa	954.7
19670 kPa	954.7
19686 kPa	954.8
19697 kPa	954.8
19712 kPa	954.7
19729 kPa	954.7
19756 kPa	954.6
19783 kPa	954.7
19814 kPa	954.6
19842 kPa	954.8
19869 kPa	954.7
19902 kPa	954.8
19926 kPa	954.8
19958 kPa	954.9
19985 kPa	954.9
20013 kPa	954.8
20045 kPa	954.9
20073 kPa	955
20106 kPa	955
20134 kPa	954.9
20162 kPa	954.9
20189 kPa	955
20223 kPa	955
20251 kPa	955.1
20281 kPa	955
20292 kPa	955.2
20310 kPa	955.1
20321 kPa	955.1
20344 kPa	955.1
20350 kPa	955.1
20373 kPa	955.1
20384 kPa	955.1
20401 kPa	955
20412 kPa	955.1
20429 kPa	955.1
20463 kPa	955.2
20492 kPa	955.2
20504 kPa	955.2
20527 kPa	955.3
20555 kPa	955.2
20585 kPa	955.2
20620 kPa	955.3
20649 kPa	955.4
20679 kPa	955.3
20691 kPa	955.3
20708 kPa	955.3
20744 kPa	955.3
20773 kPa	955.5
20781 kPa	955.3
20803 kPa	955.4
20839 kPa	955.3
20869 kPa	955.5
20905 kPa	955.6
20935 kPa	955.4
20965 kPa	955.6
20996 kPa	955.5
21033 kPa	955.5
21064 kPa	955.6
21069 kPa	955.7
21096 kPa	955.6
21102 kPa	955.7
21133 kPa	955.6
21165 kPa	955.6
21196 kPa	955.7
21229 kPa	955.8
21267 kPa	955.7
21295 kPa	955.7
21320 kPa	955.9
21350 kPa	955.8
21376 kPa	955.8
21401 kPa	955.8
21432 kPa	955.8
21456 kPa	955.9
21483 kPa	955.8
21509 kPa	955.8
21540 kPa	955.9
21565 kPa	955.9
21591 kPa	955.9
21622 kPa	956
21647 kPa	956
21678 kPa	955.9
21704 kPa	955.9
21730 kPa	956.1
21760 kPa	956
21786 kPa	956.1
21813 kPa	956.2
21840 kPa	956.1
21872 kPa	956.1
21898 kPa	956.2
21930 kPa	956.1
21956 kPa	956
21983 kPa	956.1
22010 kPa	956.2
22042 kPa	956.2
22069 kPa	956.3
22096 kPa	956.1
22127 kPa	956.3
22129 kPa	956.2
22156 kPa	956.3
22161 kPa	956.2
22190 kPa	956.3
22195 kPa	956.4
22217 kPa	956.2
22244 kPa	956.3
22272 kPa	956.3
22300 kPa	956.3
22332 kPa	956.4
22360 kPa	956.5
22388 kPa	956.4
22421 kPa	956.4
22449 kPa	956.5
22478 kPa	956.4
22512 kPa	956.6
22540 kPa	956.6
22570 kPa	956.6
22599 kPa	956.7
22633 kPa	956.5
22661 kPa	956.6
22690 kPa	956.6
22704 kPa	956.7
22724 kPa	956.6
22740 kPa	956.7
22753 kPa	956.8
22782 kPa	956.6
22817 kPa	956.7
22846 kPa	956.8
22874 kPa	956.6
22910 kPa	956.7
22939 kPa	956.9
22970 kPa	956.7
23000 kPa	956.8
23030 kPa	956.9
23066 kPa	956.9
23095 kPa	956.9
23125 kPa	956.9
23162 kPa	957
23191 kPa	957
23227 kPa	957
23257 kPa	957.1
23288 kPa	957
23318 kPa	957
23355 kPa	957
23387 kPa	957.1
23417 kPa	957.1
23454 kPa	957.1
23484 kPa	957.2
23516 kPa	957.2
23552 kPa	957.1
23584 kPa	957.2
23615 kPa	957.2
23646 kPa	957.2
23681 kPa	957.3
